Data published in ChEMBL document CHEMBL4483862, “Open-source discovery of chemical leads for next-generation chemoprotective antimalarials” (2018).
pIC50: −log10 of the molar value.

Tested on: Plasmodium berghei
Assay: Luciferase/luciferin-expressing antifolate-resistant parasites were used to infect a culture of HepG2 cells that were pre-incubated with compounds. Infected hepatocytes emit light due to the luciferase reaction. Assay results are presented as the percent inhibition of light emission compared to control. […]
Assay type: functional
Settings: sporozoite; for IC90: read-out: LUCIFERASE INFECTION ASSAY - IC90

Compound	IC90	further results
COc1cc(/C=C(/C(=O)c2cccs2)c2nc3ccccc3[nH]2)cc(OC)c1O	> 10 µM	pIC50 (HEPG2TOX_HILL_SLOPE 9.16, HEPG2TOX_R_SQUARED 0.911, PBLUC_HILL_SLOPE 3.79, PBLUC_R_SQUARED 0.1, read-out: LUCIFERASE INFECTION ASSAY - IC50): 5.13
O=C(NC1CC1)c1ccc(-c2cn3c(-c4ccc(O)cc4)cnc3cn2)cc1	> 8.91 µM	pIC50 (HEPG2TOX_HILL_SLOPE 9.19, HEPG2TOX_R_SQUARED 0.833, PBLUC_HILL_SLOPE 2.2, PBLUC_R_SQUARED 0.157, read-out: LUCIFERASE INFECTION ASSAY - IC50): 5.11
Fc1ccc(-c2ccnc3n[nH]c(C4CC4)c23)cc1Cl	> 10 µM	pIC50 (HEPG2TOX_HILL_SLOPE 9.31, HEPG2TOX_R_SQUARED 0.217, read-out: LUCIFERASE INFECTION ASSAY - IC50): < 5.00
O=C(Cc1csc(-c2ccccc2Cl)n1)NCCCCOc1ccc(F)cc1	> 10 µM	pIC50 (HEPG2TOX_HILL_SLOPE 9.37, HEPG2TOX_R_SQUARED 0.776, PBLUC_HILL_SLOPE 2.48, PBLUC_R_SQUARED 0.584, read-out: LUCIFERASE INFECTION ASSAY - IC50): 5.26
CCc1ccc(OCC(O)Cn2c(=O)c3ccccc3n3nc(C)cc23)cc1 (centres undefined)	9.43 µM	pIC50 (HEPG2TOX_HILL_SLOPE 9.12, HEPG2TOX_R_SQUARED 0.677, PBLUC_HILL_SLOPE 3.87, PBLUC_R_SQUARED 0.197, read-out: LUCIFERASE INFECTION ASSAY - IC50): 5.27
CN(C)c1ccc(C(=O)N2CCc3nc(NCc4cccc(Oc5ccccc5)c4)ncc3C2)cc1	> 6.88 µM	pIC50 (HEPG2TOX_HILL_SLOPE 9.14, HEPG2TOX_R_SQUARED 0.261, read-out: LUCIFERASE INFECTION ASSAY - IC50): < 5.16
Oc1c(Br)cc(/C=C/c2nc3cc(Cl)ccc3o2)cc1Br	> 10 µM	pIC50 (HEPG2TOX_HILL_SLOPE 9.25, HEPG2TOX_R_SQUARED 0.294, read-out: LUCIFERASE INFECTION ASSAY - IC50): < 5.00
CC(=O)NC(C)CCc1ccc(C(=O)Cn2ncc(Cl)c(Cl)c2=O)cc1 (centres undefined)	9.36 µM	pIC50 (HEPG2TOX_HILL_SLOPE 9.09, HEPG2TOX_R_SQUARED 0.148, PBLUC_HILL_SLOPE 4.21, PBLUC_R_SQUARED 0.695, read-out: LUCIFERASE INFECTION ASSAY - IC50): 5.26
Brc1ccc(-c2noc(CCc3nc4ccccc4[nH]3)n2)cc1	7.07 µM	pIC50 (HEPG2TOX_HILL_SLOPE 9.24, HEPG2TOX_R_SQUARED 0.722, PBLUC_HILL_SLOPE 3.58, PBLUC_R_SQUARED 0.661, read-out: LUCIFERASE INFECTION ASSAY - IC50): 5.42
CN(C)CCCOc1ccc(-c2nnc3ccc(-c4cccc(Cl)c4)cn23)cc1	> 10 µM	pIC50 (HEPG2TOX_HILL_SLOPE 9.26, HEPG2TOX_R_SQUARED 0.159, PBLUC_HILL_SLOPE 2.15, PBLUC_R_SQUARED 0.0523, read-out: LUCIFERASE INFECTION ASSAY - IC50): 5.10
FC(F)(F)c1cnc(N/N=C/c2cccs2)c(Cl)c1	10.6 µM	pIC50 (HEPG2TOX_HILL_SLOPE 9.1, HEPG2TOX_R_SQUARED 0.955, PBLUC_HILL_SLOPE 28.7, PBLUC_R_SQUARED 0.321, read-out: LUCIFERASE INFECTION ASSAY - IC50): 5.01
Cc1nc(Sc2nnnn2-c2ccccc2)c2c3c(sc2n1)CCC3	> 10 µM	pIC50 (HEPG2TOX_HILL_SLOPE 9.14, HEPG2TOX_R_SQUARED 0.239, read-out: LUCIFERASE INFECTION ASSAY - IC50): < 5.00
CC(C)(C)c1csc(-c2ccc(-n3cncn3)nc2)n1	> 11.6 µM	pIC50 (HEPG2TOX_HILL_SLOPE 9.36, HEPG2TOX_R_SQUARED 0.478, read-out: LUCIFERASE INFECTION ASSAY - IC50): < 4.94
COc1ccc(NC(C)=O)cc1Nc1nc(C(F)(F)F)nc2ccccc12	> 10 µM	pIC50 (HEPG2TOX_HILL_SLOPE 9.23, HEPG2TOX_R_SQUARED 0.863, PBLUC_HILL_SLOPE 3.13, PBLUC_R_SQUARED 0.379, read-out: LUCIFERASE INFECTION ASSAY - IC50): 5.21
Nc1ncnc(Sc2nnnn2-c2ccccc2)c1[N+](=O)[O-]	> 10 µM	pIC50 (HEPG2TOX_HILL_SLOPE 9.17, HEPG2TOX_R_SQUARED 0.951, read-out: LUCIFERASE INFECTION ASSAY - IC50): < 5.00
Cc1nc(N2CCc3ccccc32)c2c3c(sc2n1)CCC3	4.64 µM	pIC50 (HEPG2TOX_HILL_SLOPE 9.23, HEPG2TOX_R_SQUARED 0.902, PBLUC_HILL_SLOPE 9.42, PBLUC_R_SQUARED 0.51, read-out: LUCIFERASE INFECTION ASSAY - IC50): 5.43

Compound	IC90	further results
CNS(=O)(=O)c1cc(C(=O)OCc2ccc(-c3ccccc3C#N)cc2)n(C)c1	> 10 µM	pIC50 (HEPG2TOX_HILL_SLOPE 9.24, HEPG2TOX_R_SQUARED 0.528, PBLUC_HILL_SLOPE 2.62, PBLUC_R_SQUARED 0.748, read-out: LUCIFERASE INFECTION ASSAY - IC50): 5.27
Cc1cc(/C=C(\C#N)c2nc3ccccc3[nH]2)c(C)n1-c1cc(C(F)(F)F)ccc1Cl	5.02 µM	pIC50 (HEPG2TOX_HILL_SLOPE 9.28, HEPG2TOX_R_SQUARED 0.884, PBLUC_HILL_SLOPE 1.82, PBLUC_R_SQUARED 0.761, read-out: LUCIFERASE INFECTION ASSAY - IC50): 5.82
CC(C)Cn1c(N)c(C(=O)COC(=O)c2c3c(nc4ccccc24)CCCCC3)c(=O)n(C)c1=O	1.27 µM	pIC50 (HEPG2TOX_HILL_SLOPE 9.18, HEPG2TOX_R_SQUARED 0.068, PBLUC_HILL_SLOPE 16.7, PBLUC_R_SQUARED 0.609, read-out: LUCIFERASE INFECTION ASSAY - IC50): 5.95
Cc1cc(N(C)C(C)c2ccc(-n3cnc4ccccc43)cc2)n2ncnc2n1 (centres undefined)	> 10 µM	pIC50 (HEPG2TOX_HILL_SLOPE 9.21, HEPG2TOX_R_SQUARED 0.124, PBLUC_HILL_SLOPE 9.5, PBLUC_R_SQUARED 0.615, read-out: LUCIFERASE INFECTION ASSAY - IC50): 5.09
CCCOc1c(Cl)cc(C(=O)N2CCN(c3cccc(C)c3C)CC2)cc1OC	> 10 µM	pIC50 (HEPG2TOX_HILL_SLOPE 9.26, HEPG2TOX_R_SQUARED 0.489, PBLUC_HILL_SLOPE 10.9, 0.598, PBLUC_R_SQUARED 0.349, 0.728, read-out: LUCIFERASE INFECTION ASSAY - IC50): 5.50
Cc1ccc(-n2nc(C)c(NC(=O)COc3ccc4c(=O)c(-c5ccccc5)coc4c3)c2C)cc1	3.64 µM	pIC50 (HEPG2TOX_HILL_SLOPE 9.24, HEPG2TOX_R_SQUARED 0.0911, PBLUC_HILL_SLOPE 28.6, PBLUC_R_SQUARED 0.544, read-out: LUCIFERASE INFECTION ASSAY - IC50): 5.47
CCN(CC)S(=O)(=O)c1cc(C(=O)Nc2nc3ccccc3[nH]2)n(C)c1	9.54 µM	pIC50 (HEPG2TOX_HILL_SLOPE 9.29, HEPG2TOX_R_SQUARED 0.829, PBLUC_HILL_SLOPE 13.1, PBLUC_R_SQUARED 0.63, read-out: LUCIFERASE INFECTION ASSAY - IC50): 5.09
O=C(Nc1ccc(Cl)c(Cl)c1)OCCNC(=O)c1cccc(S(=O)(=O)N2CCCC2)c1	9.3 µM	pIC50 (HEPG2TOX_HILL_SLOPE 9.3, HEPG2TOX_R_SQUARED 0.805, PBLUC_HILL_SLOPE 3.66, PBLUC_R_SQUARED 0.453, read-out: LUCIFERASE INFECTION ASSAY - IC50): 5.29
CCCOc1ccc(S(=O)(=O)NC2CCCCC2)c2ccccc12	8.57 µM	pIC50 (HEPG2TOX_HILL_SLOPE 9.17, HEPG2TOX_R_SQUARED 0.712, PBLUC_HILL_SLOPE 2.91, PBLUC_R_SQUARED 0.385, read-out: LUCIFERASE INFECTION ASSAY - IC50): 5.39
CCN(CC)c1ccc(C(=O)NNS(=O)(=O)c2c(F)cc(F)c(Cl)c2F)cc1	> 10 µM	pIC50 (HEPG2TOX_HILL_SLOPE 9.38, HEPG2TOX_R_SQUARED 0.741, PBLUC_HILL_SLOPE 14.6, PBLUC_R_SQUARED 0.427, read-out: LUCIFERASE INFECTION ASSAY - IC50): 5.04
O=C(CCN1CCN(c2ccc([N+](=O)[O-])cc2)CC1)N1CCN(c2ccccn2)CC1	4.57 µM	pIC50 (HEPG2TOX_HILL_SLOPE 9.17, HEPG2TOX_R_SQUARED 0.128, PBLUC_HILL_SLOPE 14.9, PBLUC_R_SQUARED 0.446, read-out: LUCIFERASE INFECTION ASSAY - IC50): 5.40
Cc1ccc(/C=N/Nc2nn3c(=O)c4ccccc4nc3c3ccccc23)o1	8.5 µM	pIC50 (HEPG2TOX_HILL_SLOPE 9.29, HEPG2TOX_R_SQUARED 0.957, PBLUC_HILL_SLOPE 5.5, PBLUC_R_SQUARED 0.698, read-out: LUCIFERASE INFECTION ASSAY - IC50): 5.24
O=C(Nc1cccc(C(F)(F)F)c1)Nc1ccc2c(c1)no[n+]2[O-]	1.2 µM	pIC50 (HEPG2TOX_HILL_SLOPE 9.23, HEPG2TOX_R_SQUARED 0.804, PBLUC_HILL_SLOPE 15.5, PBLUC_R_SQUARED 0.688, read-out: LUCIFERASE INFECTION ASSAY - IC50): 5.98
COCCNc1ccc([N+](=O)[O-])cc1C(=O)Nc1nc2c(C)cccc2s1	> 10 µM	pIC50 (HEPG2TOX_HILL_SLOPE 9.09, HEPG2TOX_R_SQUARED 0.757, PBLUC_HILL_SLOPE 15.6, PBLUC_R_SQUARED 0.06, read-out: LUCIFERASE INFECTION ASSAY - IC50): 5.02
CCC(C)(C)c1ccc(Oc2ccc(NC(=O)CSc3nnc(-c4ccccc4)[nH]3)cc2)cc1	7.78 µM	pIC50 (HEPG2TOX_HILL_SLOPE 9.08, HEPG2TOX_R_SQUARED 0.57, PBLUC_HILL_SLOPE 3.67, PBLUC_R_SQUARED 0.581, read-out: LUCIFERASE INFECTION ASSAY - IC50): 5.37
Cc1noc(C)c1COc1ccc(C(=O)OCC(=O)NCCC2=CCCCC2)cc1	8.4 µM	pIC50 (HEPG2TOX_HILL_SLOPE 9.34, HEPG2TOX_R_SQUARED 0.702, PBLUC_HILL_SLOPE 3.46, PBLUC_R_SQUARED 0.677, read-out: LUCIFERASE INFECTION ASSAY - IC50): 5.35
